Source: patent publication US20120016155A1, “DIASTEREOISOMERS OF HYPOPHOSPHOROUS ACID DERIVATIVES” (priority 2009, published 2012)
Counter-ions that a name gives are not always drawn. Like-named read-outs stand apart in the source and are kept apart here.

How the values were obtained:
Format in all cases: cell-based
mGlu8 = mGlu8 (Homo sapiens, UniProt O00222); assay: Activities on metabotropic glutamate receptor 8 (EC50; readout marked IP or by a symbol)
Source text: (§1) Activities on Metabotropic Glutamate Receptors 4, 8, 6 and 7.
(§2) Nitrobenzyl PCEP Derivatives

mGlu6 = mGlu6 (Homo sapiens, UniProt O15303); assay: Activities on metabotropic glutamate receptor 6 (EC50; readout marked IP or by a symbol); details: mean ± spread (n), read-out: mG1u6 EC50 μM (n) (converted)
mGlu6, sequence (O15303 25-877): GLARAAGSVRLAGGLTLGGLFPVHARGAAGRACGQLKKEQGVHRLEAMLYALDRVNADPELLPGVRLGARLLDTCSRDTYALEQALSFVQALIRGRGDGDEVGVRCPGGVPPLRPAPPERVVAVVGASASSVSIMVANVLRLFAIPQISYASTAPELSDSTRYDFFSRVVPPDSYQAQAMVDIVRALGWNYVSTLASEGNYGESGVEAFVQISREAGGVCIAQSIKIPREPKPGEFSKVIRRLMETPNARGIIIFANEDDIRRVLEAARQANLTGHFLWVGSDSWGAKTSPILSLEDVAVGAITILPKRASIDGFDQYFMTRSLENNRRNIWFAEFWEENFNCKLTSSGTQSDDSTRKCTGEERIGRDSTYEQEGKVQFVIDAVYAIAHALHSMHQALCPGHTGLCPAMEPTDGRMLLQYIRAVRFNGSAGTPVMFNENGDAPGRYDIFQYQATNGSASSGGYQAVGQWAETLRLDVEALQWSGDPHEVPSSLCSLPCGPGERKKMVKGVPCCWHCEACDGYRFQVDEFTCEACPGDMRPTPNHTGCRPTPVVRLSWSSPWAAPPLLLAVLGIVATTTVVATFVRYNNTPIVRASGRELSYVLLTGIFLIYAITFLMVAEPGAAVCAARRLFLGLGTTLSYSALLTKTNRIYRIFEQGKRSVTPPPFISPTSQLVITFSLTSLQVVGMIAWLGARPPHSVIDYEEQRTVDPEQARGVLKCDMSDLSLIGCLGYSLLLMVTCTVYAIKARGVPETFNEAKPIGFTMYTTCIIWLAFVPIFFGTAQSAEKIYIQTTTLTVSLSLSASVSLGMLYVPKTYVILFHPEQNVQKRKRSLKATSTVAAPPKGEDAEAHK
Source text: as §1, §2

mGlu7 = mGlu7 (Homo sapiens, UniProt Q14831); assay: Activities on metabotropic glutamate receptor 7 (EC50; readout marked IP or by a symbol); details: mean ± spread (n), read-out: mG1u7 EC50 μM (n) (converted)
mGlu7, sequence (Q14831 35-915): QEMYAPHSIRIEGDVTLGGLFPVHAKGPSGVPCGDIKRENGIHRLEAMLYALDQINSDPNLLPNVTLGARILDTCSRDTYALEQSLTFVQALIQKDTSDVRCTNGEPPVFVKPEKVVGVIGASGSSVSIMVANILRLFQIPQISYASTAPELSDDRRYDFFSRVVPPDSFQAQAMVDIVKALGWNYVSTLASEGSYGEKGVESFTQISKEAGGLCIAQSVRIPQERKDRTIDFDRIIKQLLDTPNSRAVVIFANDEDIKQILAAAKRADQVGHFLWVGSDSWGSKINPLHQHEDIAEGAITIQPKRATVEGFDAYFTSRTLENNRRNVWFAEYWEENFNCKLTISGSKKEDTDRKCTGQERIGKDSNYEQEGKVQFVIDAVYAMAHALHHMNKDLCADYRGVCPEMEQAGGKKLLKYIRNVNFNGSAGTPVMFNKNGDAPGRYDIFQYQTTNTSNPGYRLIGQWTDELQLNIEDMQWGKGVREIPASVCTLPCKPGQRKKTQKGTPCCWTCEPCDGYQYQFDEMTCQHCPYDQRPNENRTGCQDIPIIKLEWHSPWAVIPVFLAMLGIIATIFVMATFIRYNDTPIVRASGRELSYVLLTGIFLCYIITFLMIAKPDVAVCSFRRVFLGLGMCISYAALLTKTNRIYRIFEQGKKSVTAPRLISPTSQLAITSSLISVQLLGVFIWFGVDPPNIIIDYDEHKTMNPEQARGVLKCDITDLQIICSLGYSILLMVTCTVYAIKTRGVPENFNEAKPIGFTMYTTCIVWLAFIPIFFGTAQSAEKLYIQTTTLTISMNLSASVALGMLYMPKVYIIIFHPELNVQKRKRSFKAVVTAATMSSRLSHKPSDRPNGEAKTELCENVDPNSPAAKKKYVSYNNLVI
Source text: as §1, §2

mGlu4 = mGlu4 (Homo sapiens, UniProt Q14833); assay: Activities on metabotropic glutamate receptor 4 (EC50; readout marked IP or by a symbol); details: for mGlu8/4 EC50 ratio: ratio of mGlu8 EC50 to mGlu4 EC50, one per pair of values (readout/batch)
mGlu4, sequence (Q14833 33-912): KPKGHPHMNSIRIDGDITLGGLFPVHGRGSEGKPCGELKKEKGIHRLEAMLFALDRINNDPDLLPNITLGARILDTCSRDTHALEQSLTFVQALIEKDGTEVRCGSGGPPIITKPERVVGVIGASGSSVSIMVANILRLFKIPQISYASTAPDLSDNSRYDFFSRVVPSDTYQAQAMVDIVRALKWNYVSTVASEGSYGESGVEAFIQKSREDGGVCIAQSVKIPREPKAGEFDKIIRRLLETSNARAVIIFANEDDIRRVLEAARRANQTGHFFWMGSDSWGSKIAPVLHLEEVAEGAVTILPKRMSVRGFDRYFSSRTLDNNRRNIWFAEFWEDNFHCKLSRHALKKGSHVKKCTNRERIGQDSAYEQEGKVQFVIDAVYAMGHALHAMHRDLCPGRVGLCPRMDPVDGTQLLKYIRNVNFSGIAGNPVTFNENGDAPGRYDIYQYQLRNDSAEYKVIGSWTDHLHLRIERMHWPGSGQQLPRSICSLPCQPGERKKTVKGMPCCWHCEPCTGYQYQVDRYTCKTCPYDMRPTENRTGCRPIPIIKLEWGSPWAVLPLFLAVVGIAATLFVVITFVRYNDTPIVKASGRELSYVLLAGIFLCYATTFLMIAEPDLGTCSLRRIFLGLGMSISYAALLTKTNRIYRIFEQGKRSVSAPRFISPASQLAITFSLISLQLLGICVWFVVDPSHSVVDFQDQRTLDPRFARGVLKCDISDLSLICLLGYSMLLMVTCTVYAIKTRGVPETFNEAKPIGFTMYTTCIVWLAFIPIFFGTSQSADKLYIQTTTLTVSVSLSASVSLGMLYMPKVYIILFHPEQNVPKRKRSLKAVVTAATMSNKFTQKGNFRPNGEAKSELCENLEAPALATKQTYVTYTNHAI
Source text: as §1, §2

[1] = values marked IP, mean ± spread (n)
[2] = values marked with an image symbol (second readout, not IP)
[3] = values marked with an image symbol (second readout, not IP), mean ± spread (n)

mGlu8, sequence (O00222 34-908): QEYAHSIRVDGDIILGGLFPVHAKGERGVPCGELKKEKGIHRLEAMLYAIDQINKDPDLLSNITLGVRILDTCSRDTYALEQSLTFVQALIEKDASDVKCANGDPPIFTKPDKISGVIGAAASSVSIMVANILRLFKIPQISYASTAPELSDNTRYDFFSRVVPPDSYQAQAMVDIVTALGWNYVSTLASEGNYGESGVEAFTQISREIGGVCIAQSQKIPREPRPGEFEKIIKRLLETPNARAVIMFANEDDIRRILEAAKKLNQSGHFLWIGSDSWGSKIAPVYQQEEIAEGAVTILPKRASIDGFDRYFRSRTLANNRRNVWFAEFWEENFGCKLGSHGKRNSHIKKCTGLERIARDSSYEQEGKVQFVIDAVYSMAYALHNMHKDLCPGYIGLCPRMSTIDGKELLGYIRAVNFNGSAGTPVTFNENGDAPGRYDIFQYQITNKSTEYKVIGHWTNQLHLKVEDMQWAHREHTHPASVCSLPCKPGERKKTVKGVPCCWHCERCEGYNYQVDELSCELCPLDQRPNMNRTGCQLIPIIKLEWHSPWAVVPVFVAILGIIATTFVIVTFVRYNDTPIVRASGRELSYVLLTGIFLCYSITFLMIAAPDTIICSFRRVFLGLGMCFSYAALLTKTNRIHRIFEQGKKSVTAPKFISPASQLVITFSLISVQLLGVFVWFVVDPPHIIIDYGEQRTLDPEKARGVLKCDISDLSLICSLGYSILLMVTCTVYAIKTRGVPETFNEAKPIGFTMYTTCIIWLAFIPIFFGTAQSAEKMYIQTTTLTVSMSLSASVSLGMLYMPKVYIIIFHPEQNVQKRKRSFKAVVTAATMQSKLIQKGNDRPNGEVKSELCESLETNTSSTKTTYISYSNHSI

SMILES	mGlu8/4 EC50 ratio (mGlu4)	EC50 (mGlu4; [3]) [µM]	EC50 (mGlu8; [3]) [µM]	other results
N[C@@H](CCP(=O)(O)C(O)c1cccc([N+](=O)[O-])c1)C(=O)O (mixture of isomers) [LSP1-2093, (3S)-3-[(((3-ammonium-3-carboxy)propyl)(hydroxy)phosphinyl)-hydroxymethyl]3-nitrobenzene]				EC50 (mGlu8; [1]): 1.5 ± 0.5 µM; EC50 (mGlu6; values marked IP): 8.8 ± 0.7 µM; EC50 (mGlu7; values marked IP): > 1000 µM
COc1cc(C(O)P(=O)(O)CC[C@H](N)C(=O)O)cc([N+](=O)[O-])c1O (mixture of isomers) [LSP1-2111, (3S)-3-[(((3-ammonium-3-carboxy)propyl)(hydroxy)phosphinyl)-hydroxymethyl]4-hydroxy-5-methoxy-3-nitrobenzene]				EC50 (mGlu4; value printed without readout mark, read-out: mGlu4 EC50 μM (n) (converted)): 1.5 µM; EC50 (mGlu4; [1]): 2.2 ± 0.3 µM; EC50 (mGlu8; value printed without readout mark, read-out: mGlu8 EC50 μM (n) (converted)): 113 µM; EC50 (mGlu8; [1]): 66 ± 12 µM; EC50 (mGlu6; values marked IP): 1.7 ± 0.1 µM; EC50 (mGlu6; [2]): 3.18 µM; EC50 (mGlu7; values marked IP): 53 ± 20 µM; EC50 (mGlu7; [2]): 101 µM
CCOc1cc(C(O)P(=O)(O)CC[C@H](N)C(=O)O)cc([N+](=O)[O-])c1O (mixture of isomers) [LSP3-1145, (3S)-3-[(((3-ammonium-3-carboxy)propyl)(hydroxy)phosphinyl)-hydroxymethyl]4-hydroxy-5-ethoxy-3-nitrobenzene]	3.1	8.5 ± 1.1	27 ± 20	
COc1ccc(C(O)P(=O)(O)CC[C@H](N)C(=O)O)cc1[N+](=O)[O-] (single isomer, unassigned) [LSP2-6146-I, hydrochloride]		2 ± 0.4	2.5 ± 0.8	mGlu8/4 EC50 ratio (mGlu4; hydrochloride): 1.2
COc1ccc(C(O)P(=O)(O)CC[C@H](N)C(=O)O)cc1[N+](=O)[O-] (single isomer, unassigned) [LSP2-6146-II, hydrochloride]	1.3	1.7 ± 0.6	2.2 ± 0.6	
NC(CCP(=O)(O)C(O)c1cccc([N+](=O)[O-])c1)C(=O)O (single isomer, unassigned) [LSP3-1098-I, hydrochloride]		1 ± 0.4	1.25 ± 0.3	
NC(CCP(=O)(O)C(O)c1cccc([N+](=O)[O-])c1)C(=O)O (single isomer, unassigned) [LSP3-1098-II, hydrochloride]		0.9 ± 0.4	1.3 ± 0.5	
COc1cc(C(O)P(=O)(O)CC[C@H](N)C(=O)O)cc([N+](=O)[O-])c1O (single isomer, unassigned) [LSP3-1101-I, hydrochloride]		0.74 ± 0.09	23 ± 6	mGlu8/4 EC50 ratio (mGlu4; hydrochloride): 31; EC50 (mGlu6; [2]): 1.11 ± 0.41 µM; EC50 (mGlu7; [2]): 63 ± 35 µM
COc1cc(C(O)P(=O)(O)CC[C@H](N)C(=O)O)cc([N+](=O)[O-])c1O (single isomer, unassigned) [LSP3-1101-II, hydrochloride]	5.9	4.7 ± 0.4	27 ± 14	EC50 (mGlu6; [2]): 2.36 ± 0.77 µM; EC50 (mGlu7; [2]): 100 ± 49 µM
CCOc1cc(C(O)P(=O)(O)CC[C@H](N)C(=O)O)cc([N+](=O)[O-])c1O (single isomer, unassigned) [LSP3-1143-I, hydrochloride]		5.1 ± 1.2	33 ± 31	mGlu8/4 EC50 ratio (mGlu4; hydrochloride): 6.5
CCOc1cc(C(O)P(=O)(O)CC[C@H](N)C(=O)O)cc([N+](=O)[O-])c1O (single isomer, unassigned) [LSP3-1143-II, hydrochloride]	1.4	6.4 ± 2.4	9.2 ± 2.6	
N[C@@H](CCP(=O)(O)C(O)c1ccc(O)c([N+](=O)[O-])c1)C(=O)O (single isomer, unassigned) [LSP3-2074-I, hydrochloride]		0.5 ± 0.07	31.5 ± 8.6	mGlu8/4 EC50 ratio (mGlu4; hydrochloride): 63; EC50 (mGlu6; [2]): 3.9 ± 1.7 µM; EC50 (mGlu7; [2]): 62 ± 26 µM
Cl.N[C@@H](CCP(=O)(O)C(O)c1ccc(O)c([N+](=O)[O-])c1)C(=O)O (single isomer, unassigned) [LSP3-2074-II, hydrochloride]		4.5 ± 0.2	39.8 ± 6.5	EC50 (mGlu6; [2]): 68.4 ± 14.5 µM; EC50 (mGlu7; [2]): 295 ± 178 µM
Cl.N[C@@H](CCP(=O)(O)C(O)c1ccc(O)c([N+](=O)[O-])c1)C(=O)O (single isomer, unassigned) [LSP3-2074-II]	8.5			
N[C@@H](CCP(=O)(O)C(O)c1cccc(OCC(=O)O)c1)C(=O)O (single isomer, unassigned) [LSP3-3108-II]	2.3	13 ± 2.9	29.3 ± 7.2	
N[C@@H](CCP(=O)(O)C(O)c1cccc(OCC(=O)O)c1)C(=O)O (single isomer, unassigned) [LSP3-3108-I]	7.4	4.9 ± 1	36 ± 18	
COc1ccc(C(O)P(=O)(O)CC[C@H](N)C(=O)O)cc1[N+](=O)[O-] (stereo partly drawn) [LSP1-2101, (3S)-3-[(((3-amino-3-carboxy)propyl) (hydroxy)phosphinyl)-hydroxymethyl]-4-methoxy-3-nitrobenzene]		4.2	4.4	EC50 (mGlu4; [1]): 0.5 ± 0.09 µM; EC50 (mGlu8; [1]): 0.85 ± 0.07 µM
N[C@@H](CCP(=O)(O)C(O)c1ccc(O)c([N+](=O)[O-])c1)C(=O)O (stereo partly drawn) [LSP1-2109, (3S)-3-[(((3-amino-3-carboxy)propyl) (hydroxy)phosphinyl)-hydroxymethyl]-4-hydroxy-3-nitrobenzene]				EC50 (mGlu6; values marked IP): 6 ± 0.9 µM; EC50 (mGlu6; [2]): 6.3 µM; EC50 (mGlu7; values marked IP): 69 ± 8 µM; EC50 (mGlu7; [2]): 125 µM
NC(c1cccc([N+](=O)[O-])c1)P(=O)(O)CC[C@H](N)C(=O)O (stereo partly drawn) [LSP1-3131, (2S)-amino-4-[[amino(3-nitrophenyl)methyl](hydroxy)phosphinyl]butanoic acid]	4.1			EC50 (mGlu4; [1]): 0.54 ± 0.14 µM; EC50 (mGlu8; [1]): 2.2 ± 0.9 µM
N[C@@H](CCP(=O)(O)Cc1cccc([N+](=O)[O-])c1)C(=O)O [LSP3-1045, (3S)-3-[(((3-ammonium-3-carboxy)propyl) (hydroxy)phosphinyl)-methyl]3-nitrobenzene]		0.42	1	EC50 (mGlu4; [1]): 0.8 ± 0.2 µM; EC50 (mGlu8; [1]): 4.4 ± 2 µM
COc1cc(CP(=O)(O)CC[C@H](N)C(=O)O)cc([N+](=O)[O-])c1O.N [LSP3-2134, (3S)-3-[(((3-ammonium-3-carboxy)propyl)(hydroxy)phosphinyl)-methyl]4-hydroxy-5-methoxy-3-nitrobenzene]	0.85	19.7 ± 10.5	16.6 ± 1.1	
N[C@@H](CCP(=O)(O)C(O)c1cccc(OCC(=O)O)c1)C(=O)O (stereo partly shown) [LSP3-3099]	9.4	7.6 ± 2	71 ± 25	
COc1cc(C(N)P(=O)(O)CC[C@H](N)C(=O)O)cc([N+](=O)[O-])c1O (stereo partly drawn) [LSP4-1184, (2S)-amino-4-[[amino(4-hydroxy-5-methoxy-3-nitrophenyl)methyl](hydroxy)phosphoryl]butanoic acid]		13 ± 3.9	33 ± 12	
